# Target: T1, DNMT3B/3L (Homo sapiens, UniProt Q9UBC3)
# T1 construct: purchased DiscoverX BROMOscan (bromodomains); SGC in-house methyltransferase panel
# Assay: Methyl transferase scintillation proximity assay
# Assay type: biochemical
# Details: 10µM; average of two measurements
# Summary of the method: (§1)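 Read-out is scintillation counts (CPM) from biotinylated substrate carrying a ^3H-methyl group, normalised to no-compound (100%) and no-enzyme (0%) wells. Reactions used ^3H-SAM and substrate close to each enzyme's apparent Km.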
row,SMILES,MTases Inhibition (%)
1,COc1ccccc1C(=O)Nc1cc2c(cc1N1CCNC[C@H]1C)n(C)c(=O)n2C [GSK6853],8

# Same assay, conditions: average of two measurements, read-out: MTases Inhibition (%)
row,SMILES,inhibition at 10 µM [%]
1,CN1C[C@H](Nc2cnn(C)c(=O)c2Br)C[C@H](c2ccccc2)C1 [GSK4027],1
2,COc1cc(Cl)c(C(=O)N[C@@H](CN[C@H]2CC[C@@H](N)CC2)Cc2ccc(C#N)cc2)cc1-c1ccc(CN[C@H](C)c2ccc(C)cc2)o1 [BAY-850],28
3,CN(C)CCCOc1ccc(-c2cc(NCCCn3cccn3)nc(S(C)(=O)=O)n2)cc1 [TP-238],0
4,Cc1nnc2c3ccccc3c(N[C@@H](C)[C@H](c3ccccc3)N(C)C)nn12 [L-Moses],-1
5,Cc1c(NC(=O)c2cc(C(N)=O)nc3cc(F)ccc23)c(C(F)(F)F)nn1Cc1ccc(C#N)cc1 [BAY-876],1
6,CO[C@H]1CNC[C@@H](OCC2CCC(F)(F)CC2)[C@@H]1Nc1ncc(-c2cncc(C)c2)c2cc(C)c(=O)[nH]c12 [GSK8814],18
7,Cc1c(NC(=O)c2cc(C(N)=O)nc3cc(F)ccc23)c(C(F)(F)F)nn1Cc1ccc(C(C)(C)C)cc1 [BAY-588],-6

# Target: T2, G9A (Homo sapiens, UniProt Q96KQ7)
# T2 construct: purchased DiscoverX BROMOscan (bromodomains); SGC in-house methyltransferase panel
# T2 sequence (Q96KQ7 1-1210): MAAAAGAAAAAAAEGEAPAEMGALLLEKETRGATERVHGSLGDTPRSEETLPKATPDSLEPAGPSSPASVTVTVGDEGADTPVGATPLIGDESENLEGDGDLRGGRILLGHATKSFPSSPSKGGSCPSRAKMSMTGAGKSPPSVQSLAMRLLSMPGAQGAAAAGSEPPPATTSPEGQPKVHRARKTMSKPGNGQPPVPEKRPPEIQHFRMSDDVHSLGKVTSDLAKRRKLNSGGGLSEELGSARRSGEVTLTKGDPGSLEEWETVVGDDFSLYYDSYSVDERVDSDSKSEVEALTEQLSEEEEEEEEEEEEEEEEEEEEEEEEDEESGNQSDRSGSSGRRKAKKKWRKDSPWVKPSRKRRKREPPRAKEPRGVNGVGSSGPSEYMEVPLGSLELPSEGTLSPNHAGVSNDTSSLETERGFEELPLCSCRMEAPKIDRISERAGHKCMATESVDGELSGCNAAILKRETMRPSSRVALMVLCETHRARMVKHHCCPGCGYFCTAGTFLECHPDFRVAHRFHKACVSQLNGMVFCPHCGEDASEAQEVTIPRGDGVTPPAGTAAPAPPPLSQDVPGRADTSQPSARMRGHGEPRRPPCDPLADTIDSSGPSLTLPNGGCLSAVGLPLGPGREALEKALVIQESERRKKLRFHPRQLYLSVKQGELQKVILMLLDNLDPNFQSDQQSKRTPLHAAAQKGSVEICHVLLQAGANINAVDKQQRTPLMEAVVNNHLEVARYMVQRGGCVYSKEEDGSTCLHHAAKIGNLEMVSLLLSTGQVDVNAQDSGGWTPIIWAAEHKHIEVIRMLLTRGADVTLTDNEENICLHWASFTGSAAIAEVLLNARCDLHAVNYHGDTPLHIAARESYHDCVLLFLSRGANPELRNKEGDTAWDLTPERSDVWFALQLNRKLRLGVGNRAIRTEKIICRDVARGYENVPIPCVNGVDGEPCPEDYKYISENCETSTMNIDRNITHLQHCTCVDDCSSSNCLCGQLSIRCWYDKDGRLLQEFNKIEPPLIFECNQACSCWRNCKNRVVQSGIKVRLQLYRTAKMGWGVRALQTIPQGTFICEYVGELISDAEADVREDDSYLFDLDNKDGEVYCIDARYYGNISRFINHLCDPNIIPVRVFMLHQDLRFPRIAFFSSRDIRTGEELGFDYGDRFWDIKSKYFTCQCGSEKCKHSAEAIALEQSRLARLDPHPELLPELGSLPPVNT
# Assay: Methyl transferase scintillation proximity assay
# Assay type: biochemical
# Details: 10µM; average of two measurements
# Summary of the method: as §1
row,SMILES,MTases Inhibition (%)
1,COc1ccccc1C(=O)Nc1cc2c(cc1N1CCNC[C@H]1C)n(C)c(=O)n2C [GSK6853],-2

# Same assay, conditions: average of two measurements, read-out: MTases Inhibition (%)
row,SMILES,inhibition at 10 µM [%]
1,CN1C[C@H](Nc2cnn(C)c(=O)c2Br)C[C@H](c2ccccc2)C1 [GSK4027],1
2,COc1cc(Cl)c(C(=O)N[C@@H](CN[C@H]2CC[C@@H](N)CC2)Cc2ccc(C#N)cc2)cc1-c1ccc(CN[C@H](C)c2ccc(C)cc2)o1 [BAY-850],7
3,CN(C)CCCOc1ccc(-c2cc(NCCCn3cccn3)nc(S(C)(=O)=O)n2)cc1 [TP-238],7
4,Cc1nnc2c3ccccc3c(N[C@@H](C)[C@H](c3ccccc3)N(C)C)nn12 [L-Moses],-3
5,Cc1c(NC(=O)c2cc(C(N)=O)nc3cc(F)ccc23)c(C(F)(F)F)nn1Cc1ccc(C#N)cc1 [BAY-876],-3
6,CO[C@H]1CNC[C@@H](OCC2CCC(F)(F)CC2)[C@@H]1Nc1ncc(-c2cncc(C)c2)c2cc(C)c(=O)[nH]c12 [GSK8814],-2
7,Cc1c(NC(=O)c2cc(C(N)=O)nc3cc(F)ccc23)c(C(F)(F)F)nn1Cc1ccc(C(C)(C)C)cc1 [BAY-588],3

# Target: T3, GLP (Homo sapiens, UniProt Q9H9B1)
# T3 construct: purchased DiscoverX BROMOscan (bromodomains); SGC in-house methyltransferase panel
# T3 sequence (Q9H9B1 1-1298): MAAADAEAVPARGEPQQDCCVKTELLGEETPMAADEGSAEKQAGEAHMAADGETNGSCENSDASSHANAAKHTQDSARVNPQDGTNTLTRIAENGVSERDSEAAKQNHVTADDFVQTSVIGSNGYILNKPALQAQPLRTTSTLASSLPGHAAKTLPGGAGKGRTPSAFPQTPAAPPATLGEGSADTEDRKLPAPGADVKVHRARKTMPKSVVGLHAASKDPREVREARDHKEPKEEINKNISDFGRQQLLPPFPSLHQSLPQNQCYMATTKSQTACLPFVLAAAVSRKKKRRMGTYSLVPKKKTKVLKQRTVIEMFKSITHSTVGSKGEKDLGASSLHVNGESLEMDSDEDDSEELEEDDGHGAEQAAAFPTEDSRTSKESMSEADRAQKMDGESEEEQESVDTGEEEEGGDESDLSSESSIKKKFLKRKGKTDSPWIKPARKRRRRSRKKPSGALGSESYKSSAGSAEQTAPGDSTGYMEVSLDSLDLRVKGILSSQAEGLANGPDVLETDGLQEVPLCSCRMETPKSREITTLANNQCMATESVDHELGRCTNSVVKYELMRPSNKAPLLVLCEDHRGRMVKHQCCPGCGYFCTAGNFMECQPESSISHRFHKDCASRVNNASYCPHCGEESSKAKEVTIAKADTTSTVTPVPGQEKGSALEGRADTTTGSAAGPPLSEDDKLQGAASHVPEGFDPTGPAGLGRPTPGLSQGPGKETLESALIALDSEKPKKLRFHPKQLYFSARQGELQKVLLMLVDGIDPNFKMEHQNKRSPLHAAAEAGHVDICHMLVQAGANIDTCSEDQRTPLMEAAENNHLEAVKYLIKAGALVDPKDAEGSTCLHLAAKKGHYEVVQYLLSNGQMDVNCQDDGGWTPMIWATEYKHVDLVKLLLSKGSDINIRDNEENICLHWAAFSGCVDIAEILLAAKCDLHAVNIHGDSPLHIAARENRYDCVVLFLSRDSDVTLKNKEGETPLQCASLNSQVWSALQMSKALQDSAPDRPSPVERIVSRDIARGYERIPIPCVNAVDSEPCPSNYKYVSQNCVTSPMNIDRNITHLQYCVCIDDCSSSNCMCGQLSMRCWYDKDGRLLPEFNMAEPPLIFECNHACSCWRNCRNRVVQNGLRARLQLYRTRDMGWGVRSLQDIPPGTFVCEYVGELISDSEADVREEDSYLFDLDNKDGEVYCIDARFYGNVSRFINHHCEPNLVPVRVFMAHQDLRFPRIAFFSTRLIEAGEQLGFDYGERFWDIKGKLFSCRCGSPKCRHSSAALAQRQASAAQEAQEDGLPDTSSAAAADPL
# Assay: Methyl transferase scintillation proximity assay
# Assay type: biochemical
# Details: 10µM; average of two measurements
# Summary of the method: as §1
row,SMILES,MTases Inhibition (%)
1,COc1ccccc1C(=O)Nc1cc2c(cc1N1CCNC[C@H]1C)n(C)c(=O)n2C [GSK6853],3

# Same assay, conditions: average of two measurements, read-out: MTases Inhibition (%)
row,SMILES,inhibition at 10 µM [%]
1,CN1C[C@H](Nc2cnn(C)c(=O)c2Br)C[C@H](c2ccccc2)C1 [GSK4027],2
2,COc1cc(Cl)c(C(=O)N[C@@H](CN[C@H]2CC[C@@H](N)CC2)Cc2ccc(C#N)cc2)cc1-c1ccc(CN[C@H](C)c2ccc(C)cc2)o1 [BAY-850],2
3,CN(C)CCCOc1ccc(-c2cc(NCCCn3cccn3)nc(S(C)(=O)=O)n2)cc1 [TP-238],1
4,Cc1nnc2c3ccccc3c(N[C@@H](C)[C@H](c3ccccc3)N(C)C)nn12 [L-Moses],2
5,Cc1c(NC(=O)c2cc(C(N)=O)nc3cc(F)ccc23)c(C(F)(F)F)nn1Cc1ccc(C#N)cc1 [BAY-876],0
6,CO[C@H]1CNC[C@@H](OCC2CCC(F)(F)CC2)[C@@H]1Nc1ncc(-c2cncc(C)c2)c2cc(C)c(=O)[nH]c12 [GSK8814],2
7,Cc1c(NC(=O)c2cc(C(N)=O)nc3cc(F)ccc23)c(C(F)(F)F)nn1Cc1ccc(C(C)(C)C)cc1 [BAY-588],2

# Target: T4, NSD1 (Homo sapiens, UniProt Q96L73)
# T4 construct: purchased DiscoverX BROMOscan (bromodomains); SGC in-house methyltransferase panel
# T4 sequence (Q96L73 whole entry): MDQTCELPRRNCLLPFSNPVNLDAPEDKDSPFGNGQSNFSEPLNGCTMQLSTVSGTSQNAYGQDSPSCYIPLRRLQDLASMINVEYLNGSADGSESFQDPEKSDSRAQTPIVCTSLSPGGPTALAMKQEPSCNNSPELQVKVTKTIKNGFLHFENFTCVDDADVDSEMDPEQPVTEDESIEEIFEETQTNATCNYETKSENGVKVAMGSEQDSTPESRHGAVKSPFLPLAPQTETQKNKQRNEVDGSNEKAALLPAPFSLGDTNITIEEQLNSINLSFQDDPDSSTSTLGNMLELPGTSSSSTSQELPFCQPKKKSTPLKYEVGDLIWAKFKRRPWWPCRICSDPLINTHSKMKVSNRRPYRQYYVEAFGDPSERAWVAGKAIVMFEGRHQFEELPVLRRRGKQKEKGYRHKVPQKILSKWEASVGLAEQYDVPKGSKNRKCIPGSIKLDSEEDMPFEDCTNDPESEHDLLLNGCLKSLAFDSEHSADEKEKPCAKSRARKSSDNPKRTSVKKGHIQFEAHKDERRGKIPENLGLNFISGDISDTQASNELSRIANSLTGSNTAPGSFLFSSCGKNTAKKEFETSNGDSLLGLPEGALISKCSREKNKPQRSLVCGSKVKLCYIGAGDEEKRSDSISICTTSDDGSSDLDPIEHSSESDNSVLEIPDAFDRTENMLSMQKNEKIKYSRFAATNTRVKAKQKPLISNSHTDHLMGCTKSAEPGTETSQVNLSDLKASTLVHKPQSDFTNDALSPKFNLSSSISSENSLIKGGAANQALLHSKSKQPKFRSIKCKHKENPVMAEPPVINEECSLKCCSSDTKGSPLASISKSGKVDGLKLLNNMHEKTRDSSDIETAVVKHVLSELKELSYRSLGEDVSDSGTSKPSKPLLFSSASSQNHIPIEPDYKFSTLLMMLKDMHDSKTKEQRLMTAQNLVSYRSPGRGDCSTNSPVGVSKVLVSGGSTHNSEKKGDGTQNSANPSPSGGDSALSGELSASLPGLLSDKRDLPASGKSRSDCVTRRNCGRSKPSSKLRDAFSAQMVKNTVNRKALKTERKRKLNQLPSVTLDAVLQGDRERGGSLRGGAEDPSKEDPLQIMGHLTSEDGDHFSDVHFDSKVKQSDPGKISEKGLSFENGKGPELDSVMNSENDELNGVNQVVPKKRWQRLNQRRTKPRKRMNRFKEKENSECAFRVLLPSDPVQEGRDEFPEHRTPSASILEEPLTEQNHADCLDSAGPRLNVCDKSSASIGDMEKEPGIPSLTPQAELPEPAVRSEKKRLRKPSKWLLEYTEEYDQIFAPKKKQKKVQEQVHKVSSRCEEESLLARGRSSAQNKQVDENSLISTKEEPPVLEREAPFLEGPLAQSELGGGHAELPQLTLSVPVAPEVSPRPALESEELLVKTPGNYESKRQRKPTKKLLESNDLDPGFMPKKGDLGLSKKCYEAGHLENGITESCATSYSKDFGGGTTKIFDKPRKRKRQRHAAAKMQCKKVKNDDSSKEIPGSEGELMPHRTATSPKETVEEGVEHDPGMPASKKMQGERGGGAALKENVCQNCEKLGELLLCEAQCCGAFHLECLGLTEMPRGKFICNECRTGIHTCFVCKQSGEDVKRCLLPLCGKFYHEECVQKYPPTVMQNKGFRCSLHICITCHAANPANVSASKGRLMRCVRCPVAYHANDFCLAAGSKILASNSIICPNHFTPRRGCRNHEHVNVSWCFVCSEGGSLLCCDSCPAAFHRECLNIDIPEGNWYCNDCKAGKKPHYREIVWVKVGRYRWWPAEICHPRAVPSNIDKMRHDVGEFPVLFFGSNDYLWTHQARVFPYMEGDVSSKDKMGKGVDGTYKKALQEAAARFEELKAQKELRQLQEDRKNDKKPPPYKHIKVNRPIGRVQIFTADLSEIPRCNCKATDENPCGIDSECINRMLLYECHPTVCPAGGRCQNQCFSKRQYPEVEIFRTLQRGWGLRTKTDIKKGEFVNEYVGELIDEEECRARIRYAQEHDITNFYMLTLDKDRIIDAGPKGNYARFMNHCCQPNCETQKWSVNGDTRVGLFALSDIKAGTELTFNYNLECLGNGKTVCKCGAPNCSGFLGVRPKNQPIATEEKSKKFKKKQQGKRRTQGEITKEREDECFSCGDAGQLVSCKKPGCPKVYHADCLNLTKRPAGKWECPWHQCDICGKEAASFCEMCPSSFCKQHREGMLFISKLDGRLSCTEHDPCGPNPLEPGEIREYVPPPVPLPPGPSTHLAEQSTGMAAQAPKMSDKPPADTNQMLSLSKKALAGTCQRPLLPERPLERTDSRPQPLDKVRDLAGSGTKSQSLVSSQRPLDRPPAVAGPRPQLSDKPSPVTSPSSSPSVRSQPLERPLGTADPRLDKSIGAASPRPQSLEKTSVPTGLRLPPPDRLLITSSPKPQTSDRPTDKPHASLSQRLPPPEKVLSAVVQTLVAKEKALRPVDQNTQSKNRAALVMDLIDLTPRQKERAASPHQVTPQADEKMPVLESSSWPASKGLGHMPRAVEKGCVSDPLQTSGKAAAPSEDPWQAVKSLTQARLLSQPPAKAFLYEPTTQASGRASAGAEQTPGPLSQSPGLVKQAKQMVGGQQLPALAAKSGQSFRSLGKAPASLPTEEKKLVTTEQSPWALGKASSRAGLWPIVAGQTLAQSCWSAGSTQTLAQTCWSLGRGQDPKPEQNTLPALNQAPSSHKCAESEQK
# Assay: Methyl transferase scintillation proximity assay
# Assay type: biochemical
# Details: 10µM; average of two measurements
# Summary of the method: as §1
row,SMILES,MTases Inhibition (%)
1,COc1ccccc1C(=O)Nc1cc2c(cc1N1CCNC[C@H]1C)n(C)c(=O)n2C [GSK6853],1

# Same assay, conditions: average of two measurements, read-out: MTases Inhibition (%)
row,SMILES,inhibition at 10 µM [%]
1,CN1C[C@H](Nc2cnn(C)c(=O)c2Br)C[C@H](c2ccccc2)C1 [GSK4027],4
2,COc1cc(Cl)c(C(=O)N[C@@H](CN[C@H]2CC[C@@H](N)CC2)Cc2ccc(C#N)cc2)cc1-c1ccc(CN[C@H](C)c2ccc(C)cc2)o1 [BAY-850],2
3,CN(C)CCCOc1ccc(-c2cc(NCCCn3cccn3)nc(S(C)(=O)=O)n2)cc1 [TP-238],1
4,Cc1nnc2c3ccccc3c(N[C@@H](C)[C@H](c3ccccc3)N(C)C)nn12 [L-Moses],-6
5,Cc1c(NC(=O)c2cc(C(N)=O)nc3cc(F)ccc23)c(C(F)(F)F)nn1Cc1ccc(C#N)cc1 [BAY-876],2
6,CO[C@H]1CNC[C@@H](OCC2CCC(F)(F)CC2)[C@@H]1Nc1ncc(-c2cncc(C)c2)c2cc(C)c(=O)[nH]c12 [GSK8814],19
7,Cc1c(NC(=O)c2cc(C(N)=O)nc3cc(F)ccc23)c(C(F)(F)F)nn1Cc1ccc(C(C)(C)C)cc1 [BAY-588],11

# Reference: publication PMC6478789, “A chemical toolbox for the study of bromodomains and epigenetic signaling” (Nature Communications, 2019)
